Results: US6331555A, “Treatment of platelet derived growth factor related disorders such as cancers” (priority 1999, dated 2001)
Like-named read-outs stand apart in the source and are kept apart here.

Assays:
[1] = test system: T98G cells; assay: PDGF-stimulated DNA synthesis, T98G cells (3H-thymidine); type: cell-based, human
Description: T98G cells in log phase growth were transferred to 96-well dishes at 20,000 cells in 200 μL of serum-containing growth medium. After an overnight attachment period, the monolayers were washed twice with 200 μL MCDB 105 medium and the cells were cultured in 200 μL serum-free MCDB 105 medium for 24 hr. […] The plates were incubated at 37° C. at ambient CO2 for approximately 18 hr. ^3 H-thymidine (Amersham, 5 Ci/mmol) was added to each well to yield a final concentration of 5 μCi/mL and the plates were returned to 37° C. incubator. After 4 hr the medium was removed, the plates were put onto ice, and washed twice with 200 μL ice-cold PBS per well. Radioactivity incorporated into DNA was separated from unincorporated ^3 H-thymidine by precipitation with 100 μL ice-cold TCA for 10 min on ice. […] Six mL of cocktail (Ready Safe, Beckman) was added and radioactivity quantified in a Beckman liquid scintillation counter model LS6000SC. […]
The effect on basal ^3 H-thymidine incorporation was determined in the absence of PDGF. […] Radioactivity incorporated into DNA was separated from unincorporated ^3 H-thymidine by precipitation with […] ice-cold TCA for 10 minutes. […] Six ml of cocktail (Ready Safe, Beckman) was added and radioactivity quantified in a Beckman liquid scintillation counter model LS6000 SC.

[2] = test system: C6 glioma cells; assay: C6 glioma SC xenograft in mice; type: in vivo
Method in brief: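 C6 (3×10^6) or SKOV-3 (1×10^7) cells in PBS were implanted into the hind flank of female Balb/c nu/nu mice on Day 0; U87MG and U118MG went into athymic mice. Tumors were caliper-measured over 3–6 weeks, with volume as length×width×height. P values came from Student's t-test.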

[3] = in vivo; design: species or system rat; conditions: IP A10 80 mg/kg single dose
Description: (§1) Plasma was prepared and frozen in liquid nitrogen. Tissues and organs were resected and immediately frozen in liquid nitrogen. After the addition of an internal standard, plasma samples were acidified with HCl and extracted with acetonitrile. The acetonitrile fraction was evaporated to dryness in a vacuum centrifuge with heating and redissolved in methanol. Tissue and organ samples were homogenized according to the weight ratio of 1:5 (w:v) in 50 mM Tris-HCl, pH 7.4, at 20,000 rev/min, using a tissue homogenizer (Brinkmann Polytron Model PT3000). After the addition of an internal standard, the homogenate was acidified with HCl and then extracted with acetonitrile. The acetonitrile fraction was then extracted with an equal volume of diethyl ether. The ether fraction was evaporated to dryness in a vacuum centrifuge with heating and redissolved in methanol.
(§2) Samples for HPLC analysis were injected onto a Hewlett Packard Hypersil 5-μm C18 cartridge column (100×4.6 mm). The mobile phase was methanol:35 mM KH2 PO4 (pH 4.5) 55:45 containing 4 mM triethylamine. The flow rate was 1.2 mL/min. The compounds were monitored by UV absorption at 254 nm using a Hewlett-Packard diode-array detector (HP Model 1090). Plasma and tissue concentrations were determined from standard curves using peak area for quantitation. […] The internal standard used was 5-methyl-pyrazole-4-carboxylic acid-(4-trifluoromethyl)-anilide.
(§3) Table XXII. […] Plasma and brain samples were prepared and analyzed by HPLC as described in Appendix 6. All results were calculated by the method of internal standardization. NT= not tested, ND= not detected.

[4] = Description: as §1, §2, §3
[5] = test system: NIH3T3 cells overexpressing the human PDGF-b receptor; assay: PDGF-stimulated cell cycle progression, flow cytometry; type: cell-based, mouse
Description: NIH3T3 mouse fibroblasts overexpressing the human PDGF-β receptor were seeded in DMEM supplemented with 10% CS and 2 mM GLN. Cells were grown to about 80% confluence and then treated overnight in serum-free medium (DMEM, 2 mM GLN, 2 mM NEAA, 2 mM NaPyr, and 2 mM HEPES). […] Cells were then collected, strained and analyzed by flow cytometry for DNA content.
The percentage of cells in the S phase of the cell cycle was determined by flow cytometry.
The cells were analyzed for DNA content by flow cytometry.

[6] = test system: tumor cell lines; assay: In vitro growth assays, tumor cell lines; type: cell-based
Description: The assay measures protein content of acid-fixed cells using the counterion binding dye sulforhodamine B (SRB, Sigma). […] For other cell lines, the cells (2000 cells/well in 100 μL) were introduced into wells immediately after dispensing the drug solutions. After 4 days (37° C., 5% CO2) the monolayers were washed 3 times with PBS and fixed with 200 μL ice-cold 10% TCA (Fisher Scientific), and kept at 4° C. for 60 min. The TCA was removed and the fixed monolayers were washed 5 times with tap water and allowed to dry completely at room temperature on absorbent paper. The cellular protein was stained for 10 min with 100 μL 0.4% SRB dissolved in 1% acetic acid. After 5 washes with tap water, the dye was solubilized in 10 mM Tris base (100 μL per well) and absorbance read at 570 nm on a Dynatech plate reader model MR5000. Growth inhibition data are expressed as a percentage of absorbance detected in control wells which were treated with 0.4% DMSO alone. DMSO controls were not different from cells grown in regular growth medium. IC50 values were determined using a four parameter curve fit function.
For K562, DlB, L1210, 7TDl, T27A, and Colo320 DM cells, an MTT assay was used to assess cell growth. […] The absorbance was determined at 570 nm wavelength with a reference wavelength of 630 nm using an ELISA plate reader.

[7] = Solubility; conditions: water
Text: PBTE consists of a solution of 3% w/v benzyl alcohol, 8% w/v polysorbate 80, and 65% w/v polyethylene glycol (MW=300 daltons) in absolute ethanol. PBTE:D5W consists of PBTE diluted 1:1 in a solution of 5% dextrose in water. […] The solubility of the other compounds described herein can be obtained using standard techniques.

[8] = type: in vivo, mouse; conditions: IP A10 40 mg/kg single dose
Description: as §1
Samples for HPLC analysis were injected onto a Hewlett Packard Hypersil 5-μm C18 cartridge column (100×4.6 mm). […] The compounds were monitored by UV absorption at 254 nm using a Hewlett-Packard diode-array detector (HP Model 1090). Plasma and tissue concentrations were determined from standard curves using peak area for quantitation. […]
as §3

CC(O)=C(C#N)C(=O)Nc1ccc(C(F)(F)F)cc1 [Compound B11, 2-cyano-3-hydroxy-N-[4-(trifluoromethyl)phenyl]-2-butenamide]
potency compared to A10, PDGF-stimulated DNA synthesis [1]: equipotent in inhibiting PDGF-stimulated DNA synthesis | inhibition of tumor growth compared with A10 ([2]; B11 15 mg/kg/day (DMSO) vs A10 15 mg/kg/day (DMSO)): to the same extent | potency compared to A10, growth of C6 tumors in vivo ([2]; rat, in vivo): equipotent in the inhibition of the growth of C6 tumors in vivo | time detected in plasma [3]: greater than 24 hr | brain level, athymic mice compared to Wistar rats ([4]; 2 hr post-dose): 11 times | brain level, athymic mice compared to Wistar rats ([4]; 4 hr post-dose): 6.5 times | % Increase, multiple vs single dose ([4]; A10 20 mg/kg): 64% | % Increase, multiple vs single dose ([4]; A10 40 mg/kg): 69% | time detected in plasma ([4]; IP A10 40 mg/kg single dose): more than 48 hr | time detected in plasma ([4]; IP A10 […] mg/kg four weekly treatments, after last dose): 48 h | time detected in plasma ([4]; IP A10 […] mg/kg single dose): more than 48 hr | potency compared to A10, PDGF-stimulated cell cycle progression [5]: equipotent | potency compared to A10, in vitro growth assays [6]: equipotent to A10 | solubility in water [7]: not very soluble in water | time detected in plasma [8]: more than 48 hr
